According to patent US20070269513A1, “Liver selective drug therapy” (priority 1999, published 2007):
“And” between values parts separate entries of the source, which are not always exact repeats. Equal values may be shown once. Values belong to the compound of their own block, whether it stands above or below them.

Assays:
[1] = review as at 18 Nov. 2004; cited from earlier work
[2] = FDA MEDWATCH, in words; cited from earlier work
[3] = Kinetic study of slow-release propranolol granules given by mouth to anaesthetised dogs; portal venous and systemic blood concentration; assay type: in vivo; conditions: for Propranolol Concentration, Systemic: systemic blood
Description: Experiments were undertaken in four dogs under general anaesthesia induced with halothane and then maintained with ketamine and xylazine. Cardiovascular status was monitored by measurement of heart rate and blood pressure and by measurement of arterial blood gases. Ventilation was assisted to maintain blood gases within physiological limits. A catheter was placed in the femoral artery to permit sampling of arterial blood. After laparotomy, a catheter was placed in a mesenteric vein and advanced to the portal vein to permit sampling of portal venous blood samples.
Propranolol was administered by mouth on the evening before, and then again one hour before the study as a dose of 40 mg in granules taken from a 160 mg slow release formulation of propranolol (Cardinol; Pacific Pharmaceuticals New Zealand). […] The animals were sacrificed at the end of he experiment.
The concentration in systemic blood was generally below the level of detection (<5 ug/ml).

[4] = in vivo; cited from earlier work

SMILES: CC(C)c1c(C(=O)Nc2ccccc2)c(-c2ccccc2)c(-c2ccc(F)cc2)n1CC[C@@H](O)C[C@@H](O)CC(=O)O [Atorvastatin]
transient global amnesia cases within Australia [1]: 7 cases

SMILES: COCc1c(C(C)C)nc(C(C)C)c(/C=C/[C@@H](O)C[C@@H](O)CC(=O)O)c1-c1ccc(F)cc1 [Cerivastatin, cerivastatin]
implication in statin-associated rhabdomyolysis reports [2]: most commonly implicated statin

SMILES: CC[C@H](C)C(=O)O[C@H]1C[C@H](O)C=C2C=C[C@H](C)[C@H](CC[C@@H](O)C[C@@H](O)CC(=O)O)[C@H]21 [Pravastatin]
transient global amnesia cases within Australia [1]: 3 cases

concentration at 60 min ([3]; dog, portal venous whole blood, oral, 40 mg, portal vein, 60 min, individual dogs 1-4): 5800 ng/mL
concentration in systemic blood ([3]; generally below the level of detection, summary of the table): < 5000 ng/mL
Propranolol Concentration, Portal Vein ([3]; portal vein, 60 min, individual dogs 1-4): 10.9 µg/mL and 10 µg/mL and 6 µg/mL
Propranolol Concentration, Portal Vein ([3]; portal vein, 120 min, individual dogs 1-4): <5 µg/mL and 13 µg/mL and 4 µg/mL
Propranolol Concentration, Systemic ([3]; 30 min, individual dogs 1-4): <5 ug/ml (2×) and 2 ug/ml and <2 ug/ml
Propranolol Concentration, Systemic ([3]; 120 min, individual dogs 1-4): <5 µg/mL and 2 µg/mL and <2 µg/mL
Propranolol Concentration, Systemic ([3]; Baseline, individual dogs 1-4): <5 ug/ml (2×) and 3 ug/ml and <2 ug/ml
SMILES: CC(C)NCC(O)COc1cccc2ccccc12 (centres unmarked) [Propranolol, propranolol]
Propranolol Concentration, Portal Vein ([3]; portal vein, 30 min, individual dogs 1-4): 11.5 µg/mL and 11.8 µg/mL and 13 µg/mL and 2 µg/mL
Propranolol Concentration, Portal Vein ([3]; portal vein, 90 min, individual dogs 1-4): 22 µg/mL and 14.4 µg/mL and 10 µg/mL and 5 µg/mL
Propranolol Concentration, Portal Vein ([3]; portal vein, Baseline, 40 mg slow-release granules by mouth evening before and one hour before study, individual dogs 1-4): <5 µg/mL and 28.8 µg/mL and 21 µg/mL and 36 µg/mL
portal versus systemic concentration (liver selectivity) ([3]; small series in dogs, conclusion in words): concentration gradients between portal and systemic vessels
Propranolol Concentration, Systemic ([3]; 60 min, individual dogs 1-4): 6.2 µg/mL and <5 µg/mL and 2 µg/mL and <2 µg/mL
Propranolol Concentration, Systemic ([3]; 90 min, individual dogs 1-4): 5.8 µg/mL and <5 µg/mL and 2 µg/mL and <2 µg/mL

SMILES: CCC(C)(C)C(=O)O[C@H]1C[C@@H](C)C=C2C=C[C@H](C)[C@H](CC[C@@H]3C[C@@H](O)CC(=O)O3)[C@H]21 [simvastatin]
half-life [4]: 42 to 240 min
